Laboratory results from patent publication US10947273B2, “Peptides of use in the preventive and curative treatment of alopecia” (Institut Europeen de Biologie Cellulaire, priority 2015, dated 2021).
The star is where a group is joined. Palmitoyl = CCCCCCCCCCCCCCCC(=O)*

Assays:
Assay type in all cases: cell-based, human
[1] = test system: PDGF; test: PDGF secretion by HFDPC (ELISA/BioPlex); conditions: 48h
Protocol: (§1) NHDF, HFDPC, HHFK and NHEM cells were treated with the peptides studied for 48h. At the end of the treatment, cell supernatants were collected and stored at −80° C. until analysis. The factors of interest secreted into the supernatant were assayed by ELISA® (R&D) or BioPlex® (BioRad®).
(§2) The results are expressed as percent increase in the concentration of the factor present in the supernatant relative to the untreated control. The intensity of the effect varies as a function of the concentration of the peptide studied and of the cell type treated.

[2] = test system: NGF; test: NGF secretion by NHDF (ELISA/BioPlex); conditions: 48h
Protocol: as §1, §2

[3] = test system: VEGF; test: VEGF secretion by NHDF (ELISA/BioPlex); conditions: 48h
Protocol: as §1, §2

[4] = test system: SCF; test: SCF secretion by NHDF (ELISA/BioPlex); conditions: 48h
Protocol: as §1, §2

[5] = test system: HGF; test: HGF secretion by NHDF (ELISA/BioPlex); conditions: 48h
Protocol: as §1, §2

[6] = test system: VEGF; test: qPCR (TLDA) VEGF gene expression in HFDPC; conditions: peptide 10^−5 M (table title), 24 hours, relative to untreated controls
Protocol: (§3) RNA was extracted and purified from cell pellets using the RNA XS Kit (Macherey-Nagel). RNA quantification was carried out with a NanoDrop device and sample quality was verified on a Bioanalyzer with RNA 6000 Nano chips (Agilent). cDNA was synthesized from 300 ng of RNA using the High-Capacity cDNA Reverse Transcription Kit (LifeTech). Quality-control qPCR assays of the cDNA were carried out in microplates on the reference gene, GAPDH, and the SIRT1 gene.
(§4) Final qPCR experiments were carried out in a 1 μl volume on microfluidic cards (TaqMan Low Density Arrays, LifeTech) and the ABI 7900HT qPCR device. Amplification reactions were performed in duplicate using 1 to 2 ng of cDNA per qPCR reaction and TaqMan Universal Master Mix II (LifeTech).
(§5) Ct values were obtained using the RQ Manager software. For analyses of qPCR results, Ct values were limited to 35 cycles and the duplicate assays are averaged. The GeneXPro software was used for the studies of stability and of selection of the best reference genes. Expression variations are calculated by the relative quantification method and are expressed as percent increase in expression of the gene of interest relative to the untreated controls.

[7] = test system: genes whose expression is reduced in subjects characterized by alopecia; test: qPCR (TLDA) overall statement, genes involved in alopecia, HFDPC; conditions: summary of Table 1
Protocol: (§6) To study the effect of 9 peptides on these genes, HFDPC were treated for 24 hours with the molecules tested at 10^−7M and 10^−9M concentrations.
as §3, §4, §5

[8] = test system: KGF; test: KGF secretion by HFDPC (ELISA/BioPlex); conditions: 48h
Protocol: as §1, §2

[9] = test system: VEGF; test: VEGF secretion by HFDPC (ELISA/BioPlex); conditions: 48h
Protocol: as §1, §2

[10] = test system: HGF; test: HGF secretion by HFDPC (ELISA/BioPlex); conditions: 48h
Protocol: as §1, §2

[11] = test system: NGF; test: NGF secretion by HFDPC (ELISA/BioPlex); conditions: 10^−9 M, 48h
Protocol: as §1, §2

[12] = test system: KGF; test: qPCR (TLDA) KGF gene expression in HFDPC; design: dose or concentration left out as unconfirmed; conditions: peptide, 24 hours, relative to untreated controls
Protocol: as §3, §4, §5

[13] = test system: PDGF; test: qPCR (TLDA) PDGF gene expression in HFDPC; design: dose or concentration left out as unconfirmed; conditions: peptide, 24 hours, relative to untreated controls
Protocol: as §3, §4, §5

[14] = test system: IGF1; test: qPCR (TLDA) IGF1 gene expression in HFDPC; conditions: peptide 10^−9, 24 hours, relative to untreated controls
Protocol: as §6, §3, §4, §5

[15] = test system: HGF; test: HGF secretion by HHFK (ELISA/BioPlex); conditions: 10^−7 M, 48h
Protocol: as §1, §2

[16] = test system: SCF; test: SCF secretion by HHFK (ELISA/BioPlex); conditions: 10^−7 M, 48h
Protocol: as §1, §2

[17] = test system: microdissected hairs from scalp surgery specimens; test: Growth of isolated hair ex vivo; conditions: ex vivo isolated hair
Protocol: (§7) This study was carried out on microdissected hairs from scalp surgery specimens from women aged 52 to 71 years. Isolated hairs were kept alive for 11 to 12 days in Williams medium, under conventional cell culture conditions (37° C., 5% CO2). […]
(§8) To evaluate the effect of (1), (6) or (9) on hair growth, the hairs were photographed and their lengths measured using image analysis software. Thus, the growth of the hairs between D0 and D11/D12 could be calculated and compared with that of the untreated control. At the end of the treatments (D11 or D12), the hairs were collected and frozen or fixed for immunolabeling and histological staining.

[18] = test system: follicular markers; test: Follicular markers in isolated hair ex vivo (immunolabeling); conditions: end of treatment D11 or D12, value = marker increased
Protocol: as §7, §8

Row | Substance | PDGF secretion, percent increase relative to untreated control ([1]; 10^−7 M) | NGF secretion, percent increase relative to untreated control ([2]; 10^−9 M) | SCF secretion, percent increase relative to untreated control ([4]; 10^−7 M) | HGF secretion, percent increase relative to untreated control ([5]; 10^−7 M) | HGF secretion, percent increase relative to untreated control ([5]; 10^−9 M) | % stimulation VEGF gene expression [6] | stimulation of genes whose expression is reduced in alopecia (in words) [7] | % stimulation KGF gene expression [12] | % stimulation PDGF gene expression [13] | HGF secretion, percent increase relative to untreated control [15] | further results
1 | Palm-Ala-Arg-Pro-Ala-Ala-NH2 (Palmitoyl-ARPAA-NH2; SMILES CCCCCCCCCCCCCCCC(=O)N[C@@H](C)C(=O)N[C@@H](CCCNC(=N)N)C(=O)N1CCC[C@H]1C(=O)N[C@@H](C)C(=O)N[C@@H](C)C(N)=O) [(4)] | PDGF 8% | NGF 18% | SCF 6% | HGF 188% | HGF 95% |  |  |  |  |  | NGF secretion, percent increase relative to untreated control ([2]; 10^−7 M): NGF 12%; VEGF secretion, percent increase relative to untreated control ([3]; 10^−7 M): VEGF 9%; SCF secretion, percent increase relative to untreated control ([4]; 10^−9 M): SCF 8%
2 | Palm-Ala-Arg-Pro-Ala-Lys-NH2 (Palmitoyl-ARPAK-NH2; SMILES CCCCCCCCCCCCCCCC(=O)N[C@@H](C)C(=O)N[C@@H](CCCNC(=N)N)C(=O)N1CCC[C@H]1C(=O)N[C@@H](C)C(=O)N[C@@H](CCCCN)C(N)=O) [(3)] |  | NGF 89% |  |  | HGF 5% | 83% | stimulate several genes |  |  |  | PDGF secretion, percent increase relative to untreated control ([1]; 10^−9 M): PDGF 39%; KGF secretion, percent increase relative to untreated control ([8]; 10^−7 M): KGF 53%; KGF secretion, percent increase relative to untreated control ([8]; 10^−9 M): KGF 45%; VEGF secretion, percent increase relative to untreated control ([9]; 10^−7 M): VEGF 9%; HGF secretion, percent increase relative to untreated control ([10]; 10^−9 M): HGF 33%; NGF secretion, percent increase relative to untreated control [11]: NGF 6%; VEGF secretion, percent increase relative to untreated control ([3]; 10^−9 M): VEGF 48%
3 | Palm-Ala-Arg-Pro-Ala-Lys-OH (Palmitoyl-ARPAK-OH; SMILES CCCCCCCCCCCCCCCC(=O)N[C@@H](C)C(=O)N[C@@H](CCCNC(=N)N)C(=O)N1CCC[C@H]1C(=O)N[C@@H](C)C(=O)N[C@@H](CCCCN)C(=O)O) [(2)] |  |  | SCF 37% | HGF 13% |  | 11% | stimulate several genes | 71% | 29% | HGF 28% | % stimulation IGF1 gene expression [14]: 136% (10^−9); HGF secretion, percent increase relative to untreated control ([10]; 10^−5 M): HGF 403%; HGF secretion, percent increase relative to untreated control ([10]; 10^−7 M): HGF 565%; SCF secretion, percent increase relative to untreated control ([4]; 10^−5 M): SCF 24%
4 | Palm-Arg-Pro-Ala-Lys-OH (Palmitoyl-RPAK-OH; SMILES CCCCCCCCCCCCCCCC(=O)N[C@@H](CCCNC(=N)N)C(=O)N1CCC[C@H]1C(=O)N[C@@H](C)C(=O)N[C@@H](CCCCN)C(=O)O) [Peptide (9)] | PDGF 117% |  | SCF 8% |  |  | 93% | stimulate several genes | 156% | 304% | HGF 94% | PDGF secretion, percent increase relative to untreated control ([1]; 10^−5 M): PDGF 62%; VEGF secretion, percent increase relative to untreated control ([9]; 10^−5 M): VEGF 10%; VEGF secretion, percent increase relative to untreated control ([3]; 10^−5 M): VEGF 24%; SCF secretion, percent increase relative to untreated control [16]: SCF 11%; Growth at D 11/D 12 Vs Control ([17]; 10^−7 M): No effect; Growth at D 11/D 12 Vs Control ([17]; 10^−9 M): +5%; Follicular markers increased Vs Control ([18]; 10^−7 M): CK15; Follicular markers increased Vs Control ([18]; 10^−9 M): CK15
